# Reference: patent publication US20140272041A1, “METHODS OF REDUCING PATHOGENS DURING PROCESSING OR POST-PROCESSING OF BEEF, POULTRY AND OTHER MEAT PRODUCTS” (BIRKO Corporation, priority 2009, published 2014)
# Where two headings read alike, the source gives them in different places.
# Key:
# [1] = test system: Salmonella enterica serovar Typhimurium (ATCC 14028); assay: Log reduction on inoculated meat samples by immersion; conditions: 5% (w/w) total acid (60% lactic+40% citric acid) + 1200 ppm SLS, meat samples immersed 3 minutes at 108° F. (Meat Experiment #43)
# Method: (§1) Meat samples were allowed to equilibrate to ambient temperature (74° F.) and inoculated with 25 μl of a late log phase culture of either Escherichia coli serotype O157:H7 (ATCC 43888) or Salmonella enterica serovar Typhimurium (ATCC 14028). Samples were allowed to rest for 10 minutes for the bacteria to attach. After attachment the inoculated samples were immersed in the treatment solutions as detailed in each experiment described below. After immersion, meat samples were immediately placed into a sterile Whirlpack Bag with 10-15 ml of neutralizing buffer to inactivate any residual antimicrobial on the meat surface. Samples were massaged for 3 minutes to extract surviving bacteria from the meat. Bacterial counts in the fluid were enumerated by plating on Violet Red Bile Agar (E. coli) or Salmonella Shigella Agar (Salmonella) and counting colonies after at least 16-24 hours of incubation.
# The meat samples described in Example 16 were treated with 5% (w/w) total acid (60% lactic+40% citric acid) with addition of 1200 ppm of the anionic surfactant sodium lauryl sulfate (SLS) for 3 minutes at 108° F.
# [2] = test system: Salmonella enterica, ATCC 14028; assay: Log kill in aqueous bacterial suspension, plating on TSA; assay type: cell-based; conditions: 15 seconds, c. 74° F.
# Method: As before, reaction mixtures were incubated for 15 seconds at room temperature (c. 74° F.). The results are depicted in Table XII and graphed in FIG. 12.
# However, in this example the effectiveness of such mixtures was tested against Salmonella enterica, ATCC 14028. […] The balance was water. Increasing amounts of these “reagents” were added to a series of reaction tubes.
# As before each reaction was initiated by the addition of bacteria, incubated at ambient temperature for 15 seconds and terminated by addition of quench buffer. The tests were performed at room temperature. The bacterial titer of each mixture was determined by preparation and plating of serial dilutions on TSA. The results for both reagents are reported in Table XIII and graphed in FIG. 13.
# E. coli ATCC 12435 = assay: Log kill / surviving titer in aqueous bacterial suspension, plating on TSA; assay type: cell-based, Escherichia coli; conditions: […] wt./wt. % WAC in 2.5% lactic acid, 15 seconds, 74 to 80 degrees F.
# Method: The “reaction” (i.e. interaction of antimicrobial agent and the target organism) was initiated by the addition of bacteria to the antimicrobial solution. The reaction was allowed to proceed for the respective time periods listed in Table I (i.e., at least 15 seconds each) and was terminated at the end of that time by adding quench buffer comprising 3.2 M potassium phosphate buffer, pH 7.2. The sample then was evaluated using serial 10-fold dilutions into sterile phosphate buffer as needed to determine, on Tryptic Soy agar (“TSA”), the titer of surviving bacteria. TSA is a medium that allows the growth of most bacteria.
# The reduction in the bacterial count is expressed as the “log kill” which is defined as log10 [initial cfu/ml]−log10 [remaining cfu/ml]; where “cfu” refers to “colony forming unit.” All log kills reported herein are positive “base 10.”). Inasmuch as the standard assay mixture contained only ca. 25×10^6 cfu initially (equivalent to 7.398 log) the theoretical maximum kill that can be measured with this assay system is ca. 7.4 log and the practical measuring limit is ca. 6 log. Therefore, high levels of log reduction were monitored by plating reaction mixtures directly (without dilution) onto agar medium. The results are reported in Table I and illustrated in graph format in FIG. 1. […] The tests were replicated with E. coli ATCC 43888, a pathogenic strain of E. coli O157:H7. […]
# After incubation for 15 seconds at ambient temperature the reaction was quenched by addition of phosphate buffer and the titer of surviving bacteria was determined by plating on TSA as described in the previous examples. […] The amphoteric and zwitterionic surfactants, which carry a net positive charge under the conditions of the reaction mixture, caused enhancement of the log kill by lactic acid. All anionic surfactants tested caused substantial enhancement of the log kill by lactic acid.
# [3] = test system: E. coli ATCC 43888 (O157:H7); assay: Log kill in aqueous bacterial suspension, plating on TSA; assay type: cell-based, Escherichia coli
# [4] = test system: Escherichia coli serotype O157:H7 (ATCC 43888); assay: Log reduction on inoculated meat samples by immersion
# Method: as §1, with “incubation. […]” for “incubation.”
# [5] = 1200 ppm SLS, 5% total acid at ratio 4:6 citric acid:lactic acid, 2 minutes at 109-111° F., control 5% lactic acid only
# [6] = 1400 ppm SLS added to 5% total acid 60:40 lactic:citric, 3 minutes at 109° F.
compound,measurement,setting,value
"CCCCCCCCCCCCOS(=O)(=O)[O-].[Na+] [Sodium Lauryl Sulfate, sodium lauryl sulfate]",Log Reduction,[1],3.28 log
same,Log Kill,[2]; sodium lauryl sulfate 0.004 wt./wt. % in […] lactic acid,3.82 log
same,Log Kill,[2]; sodium lauryl sulfate 0.008 wt./wt. % in […] lactic acid,4.4 log
same,Log Kill,[2]; sodium lauryl sulfate 0.012 wt./wt. % in […] lactic acid,5.489 log
same,Log Kill,[2]; sodium lauryl sulfate 0.016 wt./wt. % in […] lactic acid,5.489 log
same,Log Kill,[2]; sodium lauryl sulfate 0.020 wt./wt. % in […] lactic acid,5.97 log
same,Log Kill (Lactic Acid + Surfactant),E. coli ATCC 12435,6.43 log
same,Log Kill,[3],4.8 log
same,in 2.5% Lactic Acid (Log Kill),[3],5.81 log
same,in […] Lactic Acid (Log Kill),[3],5.83 log
same,Log Kill,"[3]; sodium lauryl sulfate 0.004 wt./wt. % in […] lactic acid, 15 seconds, 75 degrees F.",2.08 log
same,Log Kill,"[3]; sodium lauryl sulfate 0.012 wt./wt. % in […] lactic acid, 15 seconds, 75 degrees F.",5.92 log
same,Log Kill,"[3]; sodium lauryl sulfate 0.016 wt./wt. % in […] lactic acid, 15 seconds, 75 degrees F.",5.92 log
same,in 2.5% Lactic Acid (Log Kill),[3]; sodium lauryl sulfate 0.02 wt./wt. % in 2.5% lactic acid,4.81 log
same,in 2.5% Lactic Acid (Log Kill),[3]; sodium lauryl sulfate 0.04 wt./wt. % in 2.5% lactic acid,4.81 log
same,in […] Lactic Acid (Log Kill),"[3]; sodium lauryl sulfate 0.04 wt./wt. % in […] lactic acid, 15 seconds, 75 degrees F.",5.83 log
same,in 2.5% Lactic Acid (Log Kill),[3]; sodium lauryl sulfate 0.06 wt./wt. % in 2.5% lactic acid,5.81 log
same,in […] Lactic Acid (Log Kill),"[3]; sodium lauryl sulfate 0.06 wt./wt. % in […] lactic acid, 15 seconds, 75 degrees F.",5.34 log
same,in 2.5% Lactic Acid (Log Kill),[3]; sodium lauryl sulfate 0.10 wt./wt. % in 2.5% lactic acid,5.81 log
same,in […] Lactic Acid (Log Kill),"[3]; sodium lauryl sulfate 0.10 wt./wt. % in […] lactic acid, 15 seconds, 75 degrees F.",5.83 log
same,effect of increasing SLS concentration on kill by lactic acid,"[4]; 4% (w/w) lactic acid with 0-1700 ppm sodium lauryl sulfate, 2 minutes at 108° F.",enhanced kill
same,enhancement of reduction when SLS is included,[4]; [5],ca. 1.6 log
same,increase of microbial reduction when SLS is included,[4]; [5],40 fold
same,enhancement of reduction when SLS is included,[4]; [6],ca. 1.6 log
same,increase of microbial reduction when SLS is included,[4]; [6],40 fold
